{
  "source": "patent US20230212172A1",
  "about": "“ARYLACETAMIDE ANALOGS OF PIPERAZINE-[1,2,4]TRIAZOLO[4,3-B]PYRIDAZINES” (University of Vermont and State Agricultural College, priority 2020, published 2023)",
  "data": [
    {"tested_on": "C. parvum", "experiment": "In vitro inhibition of C. parvum development in HCT-8 cells", "type": "cell-based", "conditions": "Cryptosporidium parvum; HCT-8 cells, Table 4; read-out: EC50 for inhibition of C. parvum development in HCT-8 cells", "units": {"EC50": "µM"}, "values": [
      {"smiles": "O=C(Cc1ccccc1Cl)N1CCN(c2ccc3nncn3n2)CC1", "note": "[Example 2178, 2-(2-chlorophenyl)-1-(4-{[1,2,4]triazolo[4,3-b]pyridazin-6-yl}piperazin-1-yl)ethan-1-one]", "EC50": "> 25"},
      {"smiles": "O=C(Cc1cccc2ccccc12)N1CCN(c2ccc3nncn3n2)CC1", "note": "[Example 2257, 2-(naphthalen-1-yl)-1-(4-{[1,2,4]triazolo[4,3-b]pyridazin-6-yl}piperazin-1-yl)ethan-1-one]", "EC50": 17.1},
      {"smiles": "O=C(Cc1ccc(Cl)c(F)c1)N1CCN(c2ccc3nncn3n2)CC1", "note": "[Example 2631, 2-(4-chloro-3-fluorophenyl)-1-(4-{[1,2,4]triazolo[4,3-b]pyridazin-6-yl}piperazin-1-yl)ethan-1-one]", "EC50": 0.53},
      {"smiles": "O=C(Cc1ccc(F)cc1)N1CCN(c2ccc3nncn3n2)CC1", "note": "[Example 2632, 2-(4-fluorophenyl)-1-(4-{[1,2,4]triazolo[4,3-b]pyridazin-6-yl}piperazin-1-yl)ethan-1-one]", "EC50": 1.18},
      {"smiles": "O=C(Cc1c(Cl)cccc1Cl)N1CCN(c2ccc3nncn3n2)CC1", "note": "[Example 2720, 2-(2,6-dichlorophenyl)-1-(4-{[1,2,4]triazolo[4,3-b]pyridazin-6-yl}piperazin-1-yl)ethan-1-one]", "EC50": "> 25"},
      {"smiles": "O=C(Cc1ccc(Cl)cc1Cl)N1CCN(c2ccc3nncn3n2)CC1", "note": "[Example 2721, 2-(2,4-dichlorophenyl)-1-(4-{[1,2,4]triazolo[4,3-b]pyridazin-6-yl}piperazin-1-yl)ethan-1-one]", "EC50": "> 25"},
      {"smiles": "O=C(Cc1cc(Cl)ccc1Cl)N1CCN(c2ccc3nncn3n2)CC1", "note": "[Example 2746, 2-(2,5-dichlorophenyl)-1-(4-{[1,2,4]triazolo[4,3-b]pyridazin-6-yl}piperazin-1-yl)ethan-1-one]", "EC50": 33},
      {"smiles": "O=C(Cc1cc(Cl)cc(Cl)c1)N1CCN(c2ccc3nncn3n2)CC1", "note": "[Example 2747, 2-(3,5-dichlorophenyl)-1-(4-{[1,2,4]triazolo[4,3-b]pyridazin-6-yl}piperazin-1-yl)ethan-1-one]", "EC50": 0.99},
      {"smiles": "O=C(Cc1ccc2ccccc2c1)N1CCN(c2ccc3nncn3n2)CC1", "note": "[Example 2749, 2-(naphthalen-2-yl)-1-(4-{[1,2,4]triazolo[4,3-b]pyridazin-6-yl}piperazin-1-yl)ethan-1-one]", "EC50": 12.4},
      {"smiles": "CC1CN(c2ccc3nncn3n2)CCN1C(=O)Cc1ccc(Cl)c(Cl)c1", "note": "(stereo not drawn) [Example 2752, 2-(3,4-dichlorophenyl)-1-(2-methyl-4-{[1,2,4]triazolo[4,3-b]pyridazin-6-yl}piperazin-1-yl)ethan-1-one]", "EC50": 7.44},
      {"smiles": "O=C(Cc1ccc([N+](=O)[O-])cc1)N1CCN(c2ccc3nncn3n2)CC1", "note": "[Example 2755, 2-(4-nitrophenyl)-1-(4-{[1,2,4]triazolo[4,3-b]pyridazin-6-yl}piperazin-1-yl)ethan-1-one]", "EC50": 2.58},
      {"smiles": "Cc1ccc(CC(=O)N2CCN(c3ccc4nncn4n3)CC2)cc1Cl", "note": "[Example 2756, 2-(3-chloro-4-methylphenyl)-1-(4-{[1,2,4]triazolo[4,3-b]pyridazin-6-yl}piperazin-1-yl)ethan-1-one]", "EC50": 1.26},
      {"smiles": "Cc1ccc(CC(=O)N2CCN(c3ccc4nncn4n3)CC2)cc1F", "note": "[Example 2757, 2-(3-fluoro-4-methylphenyl)-1-(4-{[1,2,4]triazolo[4,3-b]pyridazin-6-yl}piperazin-1-yl)ethan-1-one]", "EC50": 5.56},
      {"smiles": "Cc1cc(CC(=O)N2CCN(c3ccc4nncn4n3)CC2)ccc1Cl", "note": "[Example 2758, 2-(4-chloro-3-methylphenyl)-1-(4-{[1,2,4]triazolo[4,3-b]pyridazin-6-yl}piperazin-1-yl)ethan-1-one]", "EC50": 0.292},
      {"smiles": "Cc1cc(CC(=O)N2CCN(c3ccc4nncn4n3)CC2)ccc1F", "note": "[Example 2759, 2-(4-fluoro-3-methylphenyl)-1-(4-{[1,2,4]triazolo[4,3-b]pyridazin-6-yl}piperazin-1-yl)ethan-1-one]", "EC50": 0.335},
      {"smiles": "O=C(Cc1cccc(Br)c1)N1CCN(c2ccc3nncn3n2)CC1", "note": "[Example 2760, 2-(3-bromophenyl)-1-(4-{[1,2,4]triazolo[4,3-b]pyridazin-6-yl}piperazin-1-yl)ethan-1-one]", "EC50": 2.29},
      {"smiles": "COc1ccc(CC(=O)N2CCN(c3ccc4nncn4n3)CC2)cc1", "note": "[Example 2761, 2-(4-methoxyphenyl)-1-(4-{[1,2,4]triazolo[4,3-b]pyridazin-6-yl}piperazin-1-yl)ethan-1-one]", "EC50": 16.4},
      {"smiles": "COc1cccc(CC(=O)N2CCN(c3ccc4nncn4n3)CC2)c1", "note": "[Example 2762, 2-(3-methoxyphenyl)-1-(4-{[1,2,4]triazolo[4,3-b]pyridazin-6-yl}piperazin-1-yl)ethan-1-one]", "EC50": 16.4},
      {"smiles": "O=C(Cc1ccc(F)c(Cl)c1)N1CCN(c2ccc3nncn3n2)CC1", "note": "[Example 2763, 2-(3-chloro-4-fluorophenyl)-1-(4-{[1,2,4]triazolo[4,3-b]pyridazin-6-yl}piperazin-1-yl)ethan-1-one]", "EC50": 0.24},
      {"smiles": "O=C(Cc1cccc(Cl)c1)N1CCN(c2ccc3nncn3n2)CC1", "note": "[Example 2764, 2-(3-chlorophenyl)-1-(4-{[1,2,4]triazolo[4,3-b]pyridazin-6-yl}piperazin-1-yl)ethan-1-one]", "EC50": 3.61},
      {"smiles": "O=C(C(=O)N1CCN(c2ccc3nncn3n2)CC1)c1ccc(Cl)c(Cl)c1", "note": "[Example 2765, 1-(3,4-dichlorophenyl)-2-(4-{ [1,2,4]triazolo[4,3-b]pyridazin-6-yl}piperazin-1-yl)ethane-1,2-dione]", "EC50": 2.25},
      {"smiles": "O=C(N1CCN(c2ccc3nncn3n2)CC1)C1(c2ccc(Cl)c(Cl)c2)CC1", "note": "[Example 2766, 1-[1-(3,4-dichlorophenyl)cyclopropanecarbonyl]-4-{[1,2,4]triazolo[4,3-b]pyridazin-6-yl}piperazine]", "EC50": 8.33},
      {"smiles": "O=C(Cc1ccc(Br)cc1)N1CCN(c2ccc3nncn3n2)CC1", "note": "[Example 2767, 2-(4-bromophenyl)-1-(4-{[1,2,4]triazolo[4,3-b]pyridazin-6-yl}piperazin-1-yl)ethan-1-one]", "EC50": 1.12},
      {"smiles": "O=C(Cc1ccc(COn2nnc3ccccc32)cc1)N1CCN(c2ccc3nncn3n2)CC1", "note": "[Example 2796, 2-{4-[(1H-1,2,3-benzotriazol-1-yloxy)methyl]phenyl}-1-(4-{[1,2,4]triazolo[4,3-b]pyridazin-6-yl}piperazin-1-yl)ethan-1-one]", "EC50": "> 25"},
      {"smiles": "N#Cc1ccc(CC(=O)N2CCN(c3ccc4nncn4n3)CC2)cc1", "note": "[Example 2797, 4-[2-oxo-2-(4-{[1,2,4]triazolo[4,3-b]pyridazin-6-yl}piperazin-1-yl)ethyl]benzonitrile]", "EC50": 11},
      {"smiles": "O=C(Cc1cccc(Cl)c1Cl)N1CCN(c2ccc3nncn3n2)CC1", "note": "[Example 2798, 2-(2,3-dichlorophenyl)-1-(4-{[1,2,4]triazolo[4,3-b]pyridazin-6-yl}piperazin-1-yl)ethan-1-one]", "EC50": "> 25"},
      {"smiles": "O=C(N1CCN(c2ccc3nncn3n2)CC1)C(F)(F)c1ccc(Cl)c(Cl)c1", "note": "[Example 2799, 2-(3,4-dichlorophenyl)-2,2-difluoro-1-(4-{[1,2,4]triazolo[4,3-b]pyridazin-6-yl}piperazin-1-yl)ethan-1-one]", "EC50": 2.3},
      {"smiles": "O=C(Cc1ccc(F)c(F)c1)N1CCN(c2ccc3nncn3n2)CC1", "note": "[Example 2800, 2-(3,4-difluorophenyl)-1-(4-{[1,2,4]triazolo[4,3-b]pyridazin-6-yl}piperazin-1-yl)ethan-1-one]", "EC50": 0.76},
      {"smiles": "O=C(Cc1ccc(Cl)c(Cl)c1)N1CCN(c2ccc3nnc(-c4ccccc4)n3n2)CC1", "note": "[Example 2807, 2-(3,4-dichlorophenyl)-1-(4-{3-phenyl-[1,2,4]triazolo[4,3-b]pyridazin-6-yl}piperazin-1-yl)ethan-1-one]", "EC50": 15},
      {"smiles": "Cc1nnc2ccc(N3CCN(C(=O)Cc4ccc(Cl)c(Cl)c4)CC3)nn12", "note": "[Example 2808, 2-(3,4-dichlorophenyl)-1-(4-{3-methyl-[1,2,4]triazolo[4,3-b]pyridazin-6-yl}piperazin-1-yl)ethan-1-one]", "EC50": 30},
      {"smiles": "O=C(Cc1ccc(-c2ccccc2)cc1)N1CCN(c2ccc3nncn3n2)CC1", "note": "[Example 2809, 2-{[1,1′-biphenyl]-4-yl}-1-(4-{[1,2,4]triazolo[4,3-b]pyridazin-6-yl}piperazin-1-yl)ethan-1-one]", "EC50": "> 25"},
      {"smiles": "O=C(Cc1ccc(Cl)c(Cl)c1)N1CCN(c2ccc3nnc(C(F)(F)F)n3n2)CC1", "note": "[Example 2810, 2-(3,4-dichlorophenyl)-1-{4-[3-(trifluoromethyl)-[1,2,4]triazolo[4,3-b]pyridazin-6-yl]piperazin-1-yl}ethan-1-one]", "EC50": 29},
      {"smiles": "CC(C)(C)OC(=O)NCC#Cc1ccc(CC(=O)N2CCN(c3ccc4nncn4n3)CC2)cc1", "note": "[Example 2811, Tert-butyl N-(3-{4-[2-oxo-2-(4-{[1,2,4]triazolo[4,3-b]pyridazin-6-yl}piperazin-1-yl)ethyl]phenyl}prop-2-yn-1-yl)carbamate]", "EC50": 12.8},
      {"smiles": "O=C(Cc1ccc(CN2CCOCC2)cc1)N1CCN(c2ccc3nncn3n2)CC1", "note": "[Example 2817, 2-{4-[(Morpholin-4-yl)methyl]phenyl}-1-(4-{[1,2,4]triazolo[4,3-b]pyridazin-6-yl}piperazin-1-yl)ethan-1-one]", "EC50": "> 25"},
      {"smiles": "O=C(Cc1ccc(CO)cc1)N1CCN(c2ccc3nncn3n2)CC1", "note": "[Example 2818]", "EC50": "> 25"},
      {"smiles": "O=C(Cc1ccccc1)N1CCN(c2ccc3nncn3n2)CC1", "note": "[Example 2819, 2-phenyl-1-(4-{[1,2,4]triazolo[4,3-b]pyridazin-6-yl}piperazin-1-yl)ethan-1-one]", "EC50": 22},
      {"smiles": "C#Cc1ccc(CC(=O)N2CCN(c3ccc4nncn4n3)CC2)cc1", "note": "[Example 10046, 2-(4-ethynylphenyl)-1-(4-{[1,2,4]triazolo[4,3-b]pyridazin-6-yl}piperazin-1-yl)ethan-1-one]", "EC50": 0.883}
    ]},
    {"tested_on": "C. parvum", "experiment": "In vitro inhibition of C. parvum development in HCT-8 cells", "type": "cell-based", "conditions": "Cryptosporidium parvum; average EC50, C. parvum in HCT-8 cells; read-out: Cp HTC-8 Avg EC50", "units": {"EC50": "µM"}, "values": [
      {"smiles": "O=C(Cc1ccc(Cl)c(F)c1)N1CCN(c2ccc3nncn3n2)CC1", "note": "[Example 2631, 2-(4-chloro-3-fluorophenyl)-1-(4-{[1,2,4]triazolo[4,3-b]pyridazin-6-yl}piperazin-1-yl)ethan-1-one]", "EC50": 0.53},
      {"smiles": "O=C(Cc1ccc(Cl)cc1)N1CCN(c2ccc3nncn3n2)CC1", "note": "[Example 2634, 2-(4-chlorophenyl)-1-(4-{[1,2,4]triazolo[4,3-b]pyridazin-6-yl}piperazin-1-yl)ethan-1-one]", "EC50": 0.88},
      {"smiles": "O=C(Cc1cc(Cl)cc(Cl)c1)N1CCN(c2ccc3nncn3n2)CC1", "note": "[Example 2747, 2-(3,5-dichlorophenyl)-1-(4-{[1,2,4]triazolo[4,3-b]pyridazin-6-yl}piperazin-1-yl)ethan-1-one]", "EC50": 0.99},
      {"smiles": "Cc1cc(CC(=O)N2CCN(c3ccc4nncn4n3)CC2)ccc1Cl", "note": "[Example 2758, 2-(4-chloro-3-methylphenyl)-1-(4-{[1,2,4]triazolo[4,3-b]pyridazin-6-yl}piperazin-1-yl)ethan-1-one]", "EC50": 0.279},
      {"smiles": "Cc1cc(CC(=O)N2CCN(c3ccc4nncn4n3)CC2)ccc1F", "note": "[Example 2759, 2-(4-fluoro-3-methylphenyl)-1-(4-{[1,2,4]triazolo[4,3-b]pyridazin-6-yl}piperazin-1-yl)ethan-1-one]", "EC50": 0.353},
      {"smiles": "O=C(Cc1ccc(F)c(Cl)c1)N1CCN(c2ccc3nncn3n2)CC1", "note": "[Example 2763, 2-(3-chloro-4-fluorophenyl)-1-(4-{[1,2,4]triazolo[4,3-b]pyridazin-6-yl}piperazin-1-yl)ethan-1-one]", "EC50": 0.238},
      {"smiles": "O=C(Cc1ccc(F)c(F)c1)N1CCN(c2ccc3nncn3n2)CC1", "note": "[Example 2800, 2-(3,4-difluorophenyl)-1-(4-{[1,2,4]triazolo[4,3-b]pyridazin-6-yl}piperazin-1-yl)ethan-1-one]", "EC50": 0.76},
      {"smiles": "C#Cc1ccc(CC(=O)N2CCN(c3ccc4nncn4n3)CC2)cc1", "note": "[Example 10046, 2-(4-ethynylphenyl)-1-(4-{[1,2,4]triazolo[4,3-b]pyridazin-6-yl}piperazin-1-yl)ethan-1-one]", "EC50": 0.883}
    ]}
  ]
}
